Results: ChEMBL document CHEMBL5291721, “A preclinical secondary pharmacology resource illuminates target-adverse drug reaction associations of marketed drugs” (Nat Commun, 2023)

Assays:
Histamine H3 receptor = Histamine H3 receptor (Homo sapiens, UniProt Q9Y5N1)
Histamine H2 receptor = Histamine H2 receptor (Homo sapiens, UniProt P25021); type: functional, cell-based
[1] = target: 3',5'-cyclic-AMP phosphodiesterase 4D (Homo sapiens, UniProt Q08499); type: functional
[2] = target: T1, Gamma-aminobutyric acid receptor subunit alpha-1 (Rattus norvegicus, UniProt P62813)
T1 sequence (P62813 whole entry): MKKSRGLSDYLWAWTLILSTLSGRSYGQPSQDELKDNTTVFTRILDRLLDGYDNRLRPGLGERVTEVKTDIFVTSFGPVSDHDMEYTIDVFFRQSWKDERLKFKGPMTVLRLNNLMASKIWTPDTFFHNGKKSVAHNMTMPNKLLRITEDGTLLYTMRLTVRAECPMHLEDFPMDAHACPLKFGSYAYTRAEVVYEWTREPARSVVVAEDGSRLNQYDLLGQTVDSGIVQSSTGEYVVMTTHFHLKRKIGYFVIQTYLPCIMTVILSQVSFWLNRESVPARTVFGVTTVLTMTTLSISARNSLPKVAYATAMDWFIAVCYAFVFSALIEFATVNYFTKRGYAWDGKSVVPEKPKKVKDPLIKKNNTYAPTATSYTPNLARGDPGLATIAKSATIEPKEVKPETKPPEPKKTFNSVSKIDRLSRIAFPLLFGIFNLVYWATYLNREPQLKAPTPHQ

[3] = target: Beta-2 adrenergic receptor (Homo sapiens, UniProt P07550)
Sequence of Beta-2 adrenergic receptor (P07550 whole entry): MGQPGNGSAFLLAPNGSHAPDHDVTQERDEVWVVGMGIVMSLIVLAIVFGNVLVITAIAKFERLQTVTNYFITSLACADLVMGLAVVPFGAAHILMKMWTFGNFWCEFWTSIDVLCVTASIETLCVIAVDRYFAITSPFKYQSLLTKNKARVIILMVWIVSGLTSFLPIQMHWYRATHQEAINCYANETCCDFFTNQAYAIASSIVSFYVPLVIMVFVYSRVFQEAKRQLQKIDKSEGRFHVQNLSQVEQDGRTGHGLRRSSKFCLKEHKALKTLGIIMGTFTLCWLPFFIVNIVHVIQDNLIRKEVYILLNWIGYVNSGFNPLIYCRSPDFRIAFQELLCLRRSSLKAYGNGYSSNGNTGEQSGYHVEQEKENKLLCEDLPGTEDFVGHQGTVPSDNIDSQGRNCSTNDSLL

[4] = target: Sodium-dependent dopamine transporter (Homo sapiens, UniProt Q01959)
Sequence of Sodium-dependent dopamine transporter (Q01959 whole entry): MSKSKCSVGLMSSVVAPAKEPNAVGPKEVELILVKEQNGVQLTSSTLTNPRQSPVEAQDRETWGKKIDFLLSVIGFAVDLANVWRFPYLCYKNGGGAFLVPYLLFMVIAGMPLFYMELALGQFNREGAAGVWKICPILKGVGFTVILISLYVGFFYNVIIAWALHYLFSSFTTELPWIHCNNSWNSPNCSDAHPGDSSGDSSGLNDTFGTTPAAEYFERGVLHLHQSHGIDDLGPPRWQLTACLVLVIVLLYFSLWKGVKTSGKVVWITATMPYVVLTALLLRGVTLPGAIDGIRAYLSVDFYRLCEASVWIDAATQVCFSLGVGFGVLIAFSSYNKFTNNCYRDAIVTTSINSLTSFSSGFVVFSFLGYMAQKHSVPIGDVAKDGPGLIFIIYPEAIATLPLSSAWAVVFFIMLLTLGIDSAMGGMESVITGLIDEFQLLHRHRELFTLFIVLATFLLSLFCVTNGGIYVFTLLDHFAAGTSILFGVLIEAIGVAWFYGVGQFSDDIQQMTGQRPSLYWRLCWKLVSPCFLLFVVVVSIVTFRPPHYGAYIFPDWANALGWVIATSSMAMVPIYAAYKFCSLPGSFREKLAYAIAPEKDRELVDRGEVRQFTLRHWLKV

[5] = target: T2, 5-hydroxytryptamine receptor 3A (Homo sapiens, UniProt P46098); type: functional
T2 sequence (P46098 whole entry): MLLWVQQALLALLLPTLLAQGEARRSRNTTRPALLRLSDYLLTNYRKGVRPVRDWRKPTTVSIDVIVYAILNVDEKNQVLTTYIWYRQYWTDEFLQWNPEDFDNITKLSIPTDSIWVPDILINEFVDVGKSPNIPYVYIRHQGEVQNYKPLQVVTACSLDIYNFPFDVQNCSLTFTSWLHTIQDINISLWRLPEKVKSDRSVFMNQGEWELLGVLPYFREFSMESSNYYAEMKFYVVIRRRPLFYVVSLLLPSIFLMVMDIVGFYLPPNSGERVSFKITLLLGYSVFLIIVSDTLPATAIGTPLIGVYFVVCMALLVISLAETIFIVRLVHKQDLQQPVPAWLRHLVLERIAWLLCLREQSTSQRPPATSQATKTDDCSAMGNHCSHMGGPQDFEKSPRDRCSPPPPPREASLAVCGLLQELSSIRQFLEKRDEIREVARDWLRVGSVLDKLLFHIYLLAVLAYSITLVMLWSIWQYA

[6] = target: Voltage-gated inwardly rectifying potassium channel KCNH2 (Homo sapiens, UniProt Q12809); type: functional
Sequence of Voltage-gated inwardly rectifying potassium channel KCNH2 (Q12809 whole entry): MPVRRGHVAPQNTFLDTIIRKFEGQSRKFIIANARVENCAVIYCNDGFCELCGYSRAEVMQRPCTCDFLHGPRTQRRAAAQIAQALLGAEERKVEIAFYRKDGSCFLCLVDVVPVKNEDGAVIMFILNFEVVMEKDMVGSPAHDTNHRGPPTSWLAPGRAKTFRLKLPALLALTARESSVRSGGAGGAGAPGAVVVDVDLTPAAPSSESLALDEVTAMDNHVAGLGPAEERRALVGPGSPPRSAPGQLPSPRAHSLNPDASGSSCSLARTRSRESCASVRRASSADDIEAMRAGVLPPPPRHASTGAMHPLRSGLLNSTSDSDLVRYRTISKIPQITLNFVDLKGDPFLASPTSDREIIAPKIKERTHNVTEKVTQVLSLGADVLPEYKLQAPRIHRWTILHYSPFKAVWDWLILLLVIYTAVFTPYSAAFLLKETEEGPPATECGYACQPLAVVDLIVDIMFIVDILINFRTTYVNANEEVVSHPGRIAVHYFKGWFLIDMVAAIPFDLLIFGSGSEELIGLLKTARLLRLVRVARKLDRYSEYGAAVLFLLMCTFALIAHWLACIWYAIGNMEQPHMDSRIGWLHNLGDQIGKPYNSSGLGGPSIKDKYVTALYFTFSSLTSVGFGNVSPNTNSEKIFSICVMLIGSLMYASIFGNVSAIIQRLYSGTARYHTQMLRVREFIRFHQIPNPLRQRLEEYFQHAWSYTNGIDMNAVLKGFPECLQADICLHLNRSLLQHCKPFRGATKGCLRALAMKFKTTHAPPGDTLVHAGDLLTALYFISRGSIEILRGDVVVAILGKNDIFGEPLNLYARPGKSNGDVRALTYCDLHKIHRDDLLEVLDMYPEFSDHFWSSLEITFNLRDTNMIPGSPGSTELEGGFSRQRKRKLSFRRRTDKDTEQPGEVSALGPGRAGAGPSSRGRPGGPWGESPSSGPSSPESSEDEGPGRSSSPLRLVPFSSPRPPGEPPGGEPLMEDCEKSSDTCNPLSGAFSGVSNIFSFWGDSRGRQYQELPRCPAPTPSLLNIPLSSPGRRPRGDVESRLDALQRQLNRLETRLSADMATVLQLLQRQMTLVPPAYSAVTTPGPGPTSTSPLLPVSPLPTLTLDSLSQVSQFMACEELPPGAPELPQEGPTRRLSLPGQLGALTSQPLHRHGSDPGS

Adenosine receptor A1 = target: T3, Adenosine receptor A1 (Homo sapiens, UniProt P30542)
T3 sequence (P30542 whole entry): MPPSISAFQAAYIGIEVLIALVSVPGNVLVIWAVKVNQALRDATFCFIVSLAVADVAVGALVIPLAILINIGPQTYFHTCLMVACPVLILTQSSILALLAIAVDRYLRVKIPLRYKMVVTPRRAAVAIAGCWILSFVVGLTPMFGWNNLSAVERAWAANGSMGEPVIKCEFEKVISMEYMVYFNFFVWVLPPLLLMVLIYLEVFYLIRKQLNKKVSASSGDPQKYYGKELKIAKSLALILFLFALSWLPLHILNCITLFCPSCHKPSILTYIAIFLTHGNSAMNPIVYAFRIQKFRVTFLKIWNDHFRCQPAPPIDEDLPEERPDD

[7] = target: Beta-1 adrenergic receptor (Homo sapiens, UniProt P08588); type: functional
Sequence of Beta-1 adrenergic receptor (P08588 whole entry): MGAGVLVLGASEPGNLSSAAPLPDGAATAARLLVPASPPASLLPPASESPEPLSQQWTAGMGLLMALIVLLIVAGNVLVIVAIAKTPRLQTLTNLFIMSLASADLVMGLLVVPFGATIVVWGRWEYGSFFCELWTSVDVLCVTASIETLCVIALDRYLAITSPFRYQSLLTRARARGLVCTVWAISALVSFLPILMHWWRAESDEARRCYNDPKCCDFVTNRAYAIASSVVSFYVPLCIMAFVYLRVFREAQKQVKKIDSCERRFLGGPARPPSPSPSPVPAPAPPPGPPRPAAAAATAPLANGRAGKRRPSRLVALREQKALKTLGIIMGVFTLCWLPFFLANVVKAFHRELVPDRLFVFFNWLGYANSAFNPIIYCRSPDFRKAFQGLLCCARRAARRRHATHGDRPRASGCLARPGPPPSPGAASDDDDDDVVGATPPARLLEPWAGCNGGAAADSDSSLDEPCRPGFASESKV

[8] = target: T4, Amine oxidase [flavin-containing] A (Homo sapiens, UniProt P21397); type: functional
T4 sequence (P21397 whole entry): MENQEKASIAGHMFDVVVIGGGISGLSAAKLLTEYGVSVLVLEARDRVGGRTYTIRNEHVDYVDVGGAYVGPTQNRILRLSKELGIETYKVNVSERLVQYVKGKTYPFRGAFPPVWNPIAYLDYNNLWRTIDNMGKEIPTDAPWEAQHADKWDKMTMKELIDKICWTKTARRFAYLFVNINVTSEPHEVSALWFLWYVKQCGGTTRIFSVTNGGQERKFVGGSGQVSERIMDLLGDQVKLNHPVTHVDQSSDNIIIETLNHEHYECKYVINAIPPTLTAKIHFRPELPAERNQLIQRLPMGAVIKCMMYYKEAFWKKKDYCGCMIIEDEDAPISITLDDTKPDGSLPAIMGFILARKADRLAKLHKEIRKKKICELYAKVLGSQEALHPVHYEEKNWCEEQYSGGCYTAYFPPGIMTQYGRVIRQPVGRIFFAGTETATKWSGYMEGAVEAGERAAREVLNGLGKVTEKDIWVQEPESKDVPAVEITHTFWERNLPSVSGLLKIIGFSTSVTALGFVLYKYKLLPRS

Vasopressin V1a receptor = Vasopressin V1a receptor (Homo sapiens, UniProt P37288)
Sequence of Vasopressin V1a receptor (P37288 whole entry): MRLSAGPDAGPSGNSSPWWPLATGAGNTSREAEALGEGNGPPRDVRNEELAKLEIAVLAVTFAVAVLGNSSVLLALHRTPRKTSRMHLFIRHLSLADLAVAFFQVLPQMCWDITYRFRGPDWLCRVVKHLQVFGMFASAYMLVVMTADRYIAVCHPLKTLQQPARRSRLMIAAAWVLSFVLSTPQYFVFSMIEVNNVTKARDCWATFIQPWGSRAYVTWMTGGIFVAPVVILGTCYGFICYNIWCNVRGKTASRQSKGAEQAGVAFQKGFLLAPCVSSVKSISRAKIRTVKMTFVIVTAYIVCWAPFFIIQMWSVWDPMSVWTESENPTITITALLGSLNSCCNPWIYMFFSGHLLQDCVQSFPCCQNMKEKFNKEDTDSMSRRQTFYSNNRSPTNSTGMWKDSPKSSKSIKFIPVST

[9] = target: T5, Cholecystokinin receptor type A (Homo sapiens, UniProt P32238)
T5 sequence (P32238 whole entry): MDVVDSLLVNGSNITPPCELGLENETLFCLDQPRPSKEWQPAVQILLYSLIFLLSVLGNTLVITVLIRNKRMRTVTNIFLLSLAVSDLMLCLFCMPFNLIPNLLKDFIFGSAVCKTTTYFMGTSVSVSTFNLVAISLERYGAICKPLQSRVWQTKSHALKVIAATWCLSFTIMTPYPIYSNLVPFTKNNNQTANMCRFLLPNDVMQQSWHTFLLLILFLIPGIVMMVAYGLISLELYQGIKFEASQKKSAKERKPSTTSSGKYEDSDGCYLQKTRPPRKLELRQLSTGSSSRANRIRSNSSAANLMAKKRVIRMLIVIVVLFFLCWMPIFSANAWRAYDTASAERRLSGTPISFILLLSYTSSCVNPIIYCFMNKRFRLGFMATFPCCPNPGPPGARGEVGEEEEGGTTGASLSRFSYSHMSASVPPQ

[10] = target: T1, Gamma-aminobutyric acid receptor subunit alpha-1; type: functional

Measured: AC50
Also: assay procedure not described here.

Sequence of Histamine H3 receptor (Q9Y5N1 whole entry): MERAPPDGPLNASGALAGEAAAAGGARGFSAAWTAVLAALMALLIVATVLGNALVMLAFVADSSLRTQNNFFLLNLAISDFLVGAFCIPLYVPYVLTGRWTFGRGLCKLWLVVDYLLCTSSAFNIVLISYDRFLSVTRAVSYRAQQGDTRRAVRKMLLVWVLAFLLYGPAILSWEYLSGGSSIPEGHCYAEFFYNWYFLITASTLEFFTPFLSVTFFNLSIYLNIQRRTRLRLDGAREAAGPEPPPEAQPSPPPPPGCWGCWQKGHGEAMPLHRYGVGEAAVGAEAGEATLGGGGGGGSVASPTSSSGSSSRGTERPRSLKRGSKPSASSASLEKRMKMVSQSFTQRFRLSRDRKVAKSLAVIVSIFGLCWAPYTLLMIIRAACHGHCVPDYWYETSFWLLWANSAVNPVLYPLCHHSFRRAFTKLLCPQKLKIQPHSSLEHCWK
Sequence of Histamine H2 receptor (P25021 whole entry): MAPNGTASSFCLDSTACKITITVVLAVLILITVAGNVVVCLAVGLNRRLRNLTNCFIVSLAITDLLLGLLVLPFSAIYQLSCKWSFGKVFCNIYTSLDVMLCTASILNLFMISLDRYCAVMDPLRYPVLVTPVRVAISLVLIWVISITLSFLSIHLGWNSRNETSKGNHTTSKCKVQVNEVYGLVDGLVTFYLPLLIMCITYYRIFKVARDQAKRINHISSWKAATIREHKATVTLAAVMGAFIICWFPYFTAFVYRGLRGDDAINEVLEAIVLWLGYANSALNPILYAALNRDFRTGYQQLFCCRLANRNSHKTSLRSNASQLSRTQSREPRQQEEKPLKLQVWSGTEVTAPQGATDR

C[C@@H]1C[C@H]2[C@@H]3CCC4=CC(=O)C=C[C@]4(C)[C@@]3(F)[C@@H](O)C[C@]2(C)[C@@]1(O)C(=O)CO [DEXAMETHASONE]
> 10 µM: [2] | [10]
> 30 µM: all other assays above

Oc1ccc(CCNCCCCCCNCCc2ccccc2)cc1O [DOPEXAMINE]
3.8 µM: [3]
29 µM: [1]
2.9 µM: [6]
0.5 µM: [4]
11 µM: Histamine H3 receptor
> 30 µM: all other assays above

CCCCOc1ccc(C(=O)CCN2CCCCC2)cc1 [DYCLONINE]
11 µM: [1]
3.9 µM: Histamine H3 receptor
> 30 µM: Adenosine receptor A1 | [9]
4.82 µM: [4]
3.3 µM: [6]
> 10 µM: all other assays above

CC/C=C\C/C=C\C/C=C\C/C=C\C/C=C\CCCC(=O)OCC [ICOSAPENT ETHYL]
12 µM: [1]
> 30 µM: all other assays above

NNC(=O)c1ccncc1 [ISONIAZID]
> 10 µM: Histamine H2 receptor
> 30 µM: all other assays above

COc1ccc(CN2CCN(C(c3ccc(F)cc3)c3ccc(F)cc3)CC2)c(OC)c1OC [LOMERIZINE]
0.45 µM: [6]
16 µM: [4]
> 30 µM: all other assays above

O=C1Nc2ccc(Cl)cc2C(c2ccccc2Cl)=NC1O (stereo not drawn) [LORAZEPAM]
0.0074 µM: [10]
> 30 µM: [1] | [5] | [6] | Adenosine receptor A1 | [9]
> 10 µM: all other assays above
